Experiment in all cases: E. coli hemG growth inhibition by herbicide, AtPPO1 variant
Common to all, as to assay type: cell-based
Conditions in all cases: read-out: percentage growth inhibition

Experiment [1] has as its target T1, AtPPO1 D448N (Arabidopsis thaliana, UniProt P55826, D448N).
T1 construct: expressed in transfected cells; host or cells: E. coli BL21(DE3) hemG, pET24a plasmid
T1 sequence (P55826 35-537 D448N): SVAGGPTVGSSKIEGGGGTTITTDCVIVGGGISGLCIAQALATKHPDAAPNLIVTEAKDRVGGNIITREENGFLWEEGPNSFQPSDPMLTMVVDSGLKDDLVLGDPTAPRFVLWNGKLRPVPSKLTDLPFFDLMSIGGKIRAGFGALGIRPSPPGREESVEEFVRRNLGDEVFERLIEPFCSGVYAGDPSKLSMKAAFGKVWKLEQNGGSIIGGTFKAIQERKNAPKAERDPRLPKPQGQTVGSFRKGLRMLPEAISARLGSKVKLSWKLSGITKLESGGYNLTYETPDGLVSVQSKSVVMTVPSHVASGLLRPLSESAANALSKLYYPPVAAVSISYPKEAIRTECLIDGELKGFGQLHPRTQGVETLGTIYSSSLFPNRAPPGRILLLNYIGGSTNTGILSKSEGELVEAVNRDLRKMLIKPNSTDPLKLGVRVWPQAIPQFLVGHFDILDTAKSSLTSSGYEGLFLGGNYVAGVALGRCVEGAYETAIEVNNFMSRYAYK
In a few lines: (§1)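 E. coli BL21(DE3) ΔhemG::CmR complemented by AtPPO1 variants (pET24a, T7, E. coli codon-optimised); TB + 0.1 mM IPTG, 1:100 inoculum; 6.25 ppm herbicide 0/E or 0.78 ppm herbicide B vs DMSO; 24 h, 37° C, 250 rpm; OD600 at 24 h → % growth inhibition.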

Experiment [2] has as its target T2, AtPPO1 K173H (Arabidopsis thaliana, UniProt P55826, K173H).
T2 construct: expressed in transfected cells; host or cells: E. coli BL21(DE3) hemG (hemG replaced by CmR), pET24a plasmid
T2 sequence (P55826 35-537 K173H): T1 sequence (P55826 35-537 D448N) with K139H, N414D
In a few lines:
as §1

For experiment [3], the target named is T3, AtPPO1 V511N (Arabidopsis thaliana, UniProt P55826, V511N).
T3 construct: expressed in transfected cells; host or cells: E. coli BL21(DE3) hemG, pET24a plasmid
T3 sequence (P55826 35-537 V511N): T1 sequence (P55826 35-537 D448N) with N414D, V477N
In a few lines: as §1

The target of experiment [4] is T4, AtPPO1 Y362C (Arabidopsis thaliana, UniProt P55826, Y362C).
T4 construct: expressed in transfected cells; host or cells: E. coli BL21(DE3) hemG, pET24a plasmid
T4 sequence (P55826 35-537 Y362C): T1 sequence (P55826 35-537 D448N) with Y328C, N414D
In a few lines: as §1

The structures appear in SMILES notation. Substitutions are numbered along the chain they refer to.

Take `C#CCN1C(=O)C(F)(F)Oc2cc(F)c(-n3c(=O)n(C)c(=S)n(C)c3=O)cc21` [Herbicide B, trifludimoxazin]: the inhibition at 0.78 ppm in experiment [1] came out at 40%; in experiment [2], 29%; in experiment [3], 20%; in experiment [4] it was 37%.

`CCOC(=O)[C@]1(C)CC(c2cc(-n3c(=O)n(C)c(=S)n(C)c3=O)c(F)cc2Cl)=NO1` [Herbicide D, ethyl (5S)-3-[2-chloro-5-(3,5-dimethyl-2,6-dioxo-4-thioxo-1,3,5-triazinan-1-yl)-4-fluoro-phenyl]-5-methyl-4H-isoxazole-5-carboxylate]: the inhibition at 6.25 ppm in experiment [1] was 38%; in experiment [2], 34%; in experiment [3], 22%; in experiment [4] it was 43%.

On to `CC(C)N(C)S(=O)(=O)NC(=O)c1cc(-n2c(=O)cc(C(F)(F)F)n(C)c2=O)c(F)cc1Cl` [Herbicide E, saflufenacil], for which the inhibition at 6.25 ppm stood at 63% in experiment [1], 55% in experiment [2], 48% in experiment [3] and 58% in experiment [4].

Usually inhibition stands for how much of the control response was suppressed.

These data come from patent publication US20260297542A1, “HERBICIDE RESISTANT PLANTS” (SYNGENTA CROP PROTECTION AG, priority 2023, published 2026).
